From patent publication US20130253179A1, “Functionalization Processes and Reactants Used in Such Processes Using an Isatoic Anhydride or a Derivative Thereof, Biological Molecules Thus Treated and Kits” (priority 2010, published 2013)

System: ORN with 27 bases in mixture with an ODN with 27 bases
Assay: Selective functionalisation, capture, cleaving and elution of an ORN from an ORN/ODN mixture (HPLC 260 nm)
Settings: injection 2, after two functionalisation/precipitation steps, 65° C. 1 h
Experimental: We have a 27-mer ODN (Eurogentec ref. 21438-DNA batch #2177673, Sequence: 5′-AAC-CGC-AGT-GAC-ACC-CTC-ATC-ATT-ACA-3′) in 650 μM solution in water, and a 27-mer ORN (Eurogentec ref. 21437-RNA batch #2177672, Sequence: 5′-AAC-CGC-AGU-GAC-ACC-CUC-AUC-AUU-ACA-3′) in 952 μM solution in water. 15.4 μL of ODN and 17.5 μL of ORN are mixed and topped up with 67.1 μL of ultrapure water.
80 μL of the mixture (8 nmoles) are evaporated until dry and taken up in: 10 μL of water, 5 μL of isatoic anhydride Biot PEG4(SS)IA Me (24); […]), in 480 mM DMF solution, and 5 μL of Triethyl ammonium acetate buffer in 1 M solution in water. The medium is placed in the oven at 65° C. for one hour.
The medium is then subjected to a triple precipitation with lithium perchlorate LiClO4 and with acetone, in order to free it from the residual BiotPEG4 (SS) IA Me: 18 μL of LiClO4 in 3M solution in water and 262 μL of water are added to the medium. After vortex stirring, 900 μL of acetone are added, then the medium is agitated once again and centrifuged (5 minutes at 13,000 rpm at ambient temperature). The supernatant is then removed carefully and the same method is repeated twice more with 18 μL of LiClO4 and 282 μL of water. Finally, the medium is washed with 900 μL of acetone before stirring and centrifuging. The greater part of the supernatant is removed carefully before drying in the rotary evaporator. […]

Cn1c(=O)oc(=O)c2cc(NC(=O)CCSSCCNC(=O)CCOCCOCCOCCOCCNC(=O)CCCCC3SCC4NC(=O)NC43)ccc21 (stereo not shown) [5Biot PEG4 SS IA Me 24]
initial ORN functionalised: 95%
